Key:
MCF7 cells = test: In vitro cell cycle analysis assay (FACS DNA content); assay type: cell-based, human; settings: 24 hours
Method: This assay determines the ability of a test compound to arrest cells in specific phases of the cell cycle. Many different mammalian cell lines could be used in this assay and MCF7 cells are included here as an example. MCF-7 cells were seeded at 3×10^5 cells per T25 flask (Costar) in 5 ml DMEM (no phenol red 10% FCS, 1% L-glutamine 1% penicillin/streptomycin). Flasks were then incubated overnight in a humidified 37° C. incubator with 5% CO2. The following day 1 ml of DMEM (no phenol red 10% FCS, 1% L-glutamine 1% penicillin/streptomycin) carrying the appropriate concentration of test compound solubilised in DMSO was added to the flask. A no compound control treatments was also included (0.5% DMSO). The cells were then incubated for a defined time (usually 24 hours) with compound. After this time the media was aspirated from the cells and they were washed with 5 ml of prewarmed (37° C.) sterile PBSA, then detached from the flask by brief incubation with trypsin and followed by resuspension in 10 ml of 1% Bovine Serum Albumin (BSA, Sigma-Aldrich Co.) in sterile PBSA. The samples were then centrifuged at 2200 rpm for 10 min. The supernatant was aspirated and the cell pellet was resuspended in 200 μl of 0.1% (w/v) Tris sodium citrate, 0.0564% (w/v) NaCl, 0.03% (v/v) Nonidet NP40, [pH 7.6]. Propridium Iodide (Sigma Aldrich Co.) was added to 40 μg/ml and RNAase A (Sigma Aldrich Co.) to 100 μg/ml. The cells were then incubated at 37° C. for 30 minutes. The samples were centrifuged at 2200 rpm for 10 min, the supernatant removed and the remaining pellet (nuclei) resuspended in 200 μl of sterile PBSA. Each sample was then syringed 10 times using 21 gauge needle. The samples were then transferred to LPS tubes and DNA content per cell analysed by Fluorescence activated cell sorting (FACS) using a FACScan flow cytometer (Becton Dickinson). Typically 25000 events were counted and recorded using CellQuest v1.1 software (Verity Software). Cell cycle distribution of the population was calculated using Modfit software (Verity Software) and expressed as percentage of cells in G0/G1, S and G2/M phases of the cell cycle.

MCF-7 cells [1] = test: In vitro cell proliferation assay, Assay 1 (CyQUANT cell density); assay type: cell-based; settings: Homo sapiens, MCF7, 72 h; MCF-7, 3 days with compound; read-out: concentration giving 50% inhibition of cell proliferation
Description: (b) In Vitro Cell Proliferation Assay
These and other assays can be used to determine the ability of a test compound to inhibit the growth of adherent mammalian cell lines, for example the human tumour cell line MCF7.
Assay 1: MCF-7 (ATCC HTB-22) or other adherent cells were typically seeded at 1×10^3 cells per well (excluding the peripheral wells) in DMEM (Sigma Aldrich) without phenol red, plus 10% foetal calf serum, 1% L-glutamine and 1% penicillin/streptomycin in 96 well tissue culture treated clear plates (Costar). The following day (day 1), the media was removed from a no treatment control plate and the plate stored at −80° C. The remaining plates were dosed with compound (diluted from 10 mM stock in DMSO using DMEM (without phenol red, 10% FCS, 1% L-glutamine, 1% penicillin/streptomycin). Untreated control wells were included on each plate. After 3 days in the presence/absence of compound (day 4) the media was removed and the plates stored at −80° C. Twenty four hours later the plates were thawed at room temperature and cell density determined using the CyQUANT cell proliferation assay kit (c-7026/c-7027 Molecular Probes Inc.) according to manufacturers directions. Briefly, 200 μl of a cell lysis/dye mixture (10 μl of 20× cell lysis buffer B, 190 μl of sterile water, 0.25 μl of CyQUANT GR dye) was added to each well and the plates incubated at room temperature for 5 minutes in the dark. The fluorescence of the wells was then measured using a fluorescence microplate reader (gain 70, 2 reads per well, 1 cycle with excitation 485 nm and emission 530 nm using a CytoFluor plate reader (PerSeptive Biosystems Inc.)). The values from day 1 and day 4 (compound treated) together with the values from the untreated cells were used to determine the dilution range of a test compound that gave 50% inhibition of cell proliferation. Compound no. 1 in Table 1 was effective in this test at 8.03 μM and compound no. 101 in Table 4 was effective in this test at 1.06 μM. […] The optical density of the wells was then determined at 690 nm wavelength using a Titertek Multiscan plate reader. […]

MCF-7 cells [2] = test: In vitro cell proliferation assay, Assay 2 (BrdU incorporation); assay type: cell-based; settings: Homo sapiens, MCF7; MCF-7, 48 hours with compound, 2 hour labelling; read-out: concentration giving 50% inhibition of BrdU incorporation

Row | Compound | % Cells in G1 (MCF7 cells; 25 μM) [%] | % Cells in G2/M (MCF7 cells; 25 μM) [%] | % Cells in S (MCF7 cells; 25 μM) [%] | IC50 (MCF-7 cells [1]) [nM] | IC50 (MCF-7 cells [2]) [nM] | % Cells in G1 (MCF7 cells; 2.12 μM) [%] | % Cells in G2/M (MCF7 cells; 2.12 μM) [%] | % Cells in S (MCF7 cells; 2.12 μM) [%]
1 | COc1cc2ncnc(Nc3ccc(NC(=O)c4ccccc4)cc3)c2cc1OC [Compound 1] | 25.82 | 56.47 | 17.71 | 8030 | 1240 | – | – | –
2 | COc1cc2c(Nc3ccc(NC(=O)c4ccccc4)cc3)ncnc2cc1OCCCN1CCOCC1 [Compound 101] | – | – | – | 1060 | 159 to 209 | 19.69 | 68.21 | 12.4
3 | COc1cc2ncnc(Nc3ccc(C(=O)NCc4ccc(F)cc4)cc3)c2cc1OC [Compound 557] | – | – | – | 1570 | – | – | – | –
